For test [1], the system named is Streptomyces lavendofoliae. The test can be described thus: Antibacterial activity against Streptomyces lavendofoliae after 16 hrs. The class given is functional.
The subject of test [2] is Escherichia coli. The test can be described thus: Antibacterial activity against Escherichia coli ATCC 25922 at 10 ug/ml after 16 hrs. The class given is functional. The conditions noted are these: ATCC 25922, 16 h.
In test [3] the test system is Mycobacterium tuberculosis. The test can be described thus: Antimycobacterial activity against Mycobacterium tuberculosis clinical isolate X004244 under normoxic condition after 7 days by MABA assay. The class given is functional. Particulars: clinical isolate X004244, 168 h.
Test [4] has as its system Mycobacterium tuberculosis. The test can be described thus: Antimycobacterial activity against Mycobacterium tuberculosis H37Rv under normoxic condition after 7 days by MABA assay in presence of 4% bovine serum albumin. Particulars: 168 h. The class given is functional. For orientation: Alamar Blue is a resazurin reagent that responds to reducing activity.
The subject of another test is Streptococcus pneumoniae. The test can be described thus: Antibacterial activity against Streptococcus pneumoniae ATCC 49619 after 20 hrs. Particulars: ATCC 49619, 20 h. The class given is functional.
The subject of test [5] is Mycolicibacterium smegmatis. The test can be described thus: Antimycobacterial activity against Mycobacterium smegmatis ATCC 700084 under normoxic condition after 72 hrs by MABA assay. The format is functional. Particulars: ATCC 700084, 72 h.
Test [6] relates to Candida albicans. The test can be described thus: Antifungal activity against Candida albicans ATCC 10231 at 10 ug/ml after 48 hrs. The class given is functional. Particulars: ATCC 10231, 48 h.
For test [7], the system named is Mycobacterium tuberculosis. Put plainly: Antimycobacterial activity against Mycobacterium tuberculosis H37Rv under normoxic condition after 7 days by MABA assay in presence of 10% fetal bovine serum. The conditions noted are these: 168 h. The format is functional.
Test [8] concerns Mycobacterium tuberculosis. Put plainly: Antimycobacterial activity against Mycobacterium tuberculosis clinical isolate X005282 under normoxic condition after 7 days by MABA assay. The class given is functional. Particulars: clinical isolate X005282, 168 h.
A further test deals with Enterococcus faecalis. Put plainly: Antibacterial activity against Enterococcus faecalis ATCC 29212 after 16 hrs. The format is functional. The conditions noted are these: ATCC 29212, 16 h.
The subject of a further test is Vero. Put plainly: Cytotoxicity against african green monkey Vero cells. Particulars: Chlorocebus sabaeus. The class given is cell-based.
The test system of test [9] is Staphylococcus aureus. Put plainly: Antibacterial activity against Staphylococcus aureus ATCC 29213 after 16 hrs. The class given is functional. The conditions noted are these: ATCC 29213, 16 h.
Test [10] has as its system Mycobacterium tuberculosis. The test can be described thus: Antimycobacterial activity against Mycobacterium tuberculosis H37Rv under normoxic condition after 7 days by MABA assay. The class given is functional.
Test [11] deals with Mycobacterium tuberculosis. Put plainly: Antimycobacterial activity against Mycobacterium tuberculosis clinical isolate X005319 under normoxic condition after 7 days by MABA assay. Particulars: clinical isolate X005319, 168 h. The format is functional.
The subject of test [12] is Acinetobacter baumannii. Put plainly: Antibacterial activity against Acinetobacter baumannii ATCC BAA-747 at 10 ug/ml after 16 hrs. The format is functional. Particulars: ATCC BAA-747, 16 h.
Test [13] deals with Acinetobacter baumannii. Put plainly: Antibacterial activity against Acinetobacter baumannii ATCC BAA-747 after 16 hrs. The format is functional. The conditions noted are these: ATCC BAA-747, 16 h.
In test [14] the test system is Mycobacterium tuberculosis. The test can be described thus: Antimycobacterial activity against Mycobacterium tuberculosis clinical isolate X003899 under normoxic condition after 7 days by MABA assay. The class given is functional. Particulars: clinical isolate X003899, 168 h.
In test [15] the test system is Mycobacterium tuberculosis. Put plainly: Antimycobacterial activity against Mycobacterium tuberculosis clinical isolate X001354 under normoxic condition after 7 days by MABA assay. The format is functional. Particulars: clinical isolate X001354, 168 h.
Test [16] has as its system Mycobacterium tuberculosis. Put plainly: Ratio of MIC for Mycobacterium tuberculosis H37Rv under normoxic condition in presence of 10% fetal bovine serum to MIC for Mycobacterium tuberculosis H37Rv under normoxic condition in absence of 10% fetal bovine serum by MABA assay. The class given is functional.
For test [17], the system named is Candida albicans. Put plainly: Antifungal activity against Candida albicans ATCC 10231 after 48 hrs. The class given is functional. The conditions noted are these: ATCC 10231, 48 h.
Test [18] has as its system Mycobacterium tuberculosis. Put plainly: Antimycobacterial activity against Mycobacterium tuberculosis clinical isolate X004439 under normoxic condition after 7 days by MABA assay. The format is functional. The conditions noted are these: clinical isolate X004439, 168 h.
In test [19] the test system is Mycobacterium tuberculosis. Put plainly: Ratio of MIC for Mycobacterium tuberculosis H37Rv under normoxic condition in presence of 4% bovine serum albumin to MIC for Mycobacterium tuberculosis H37Rv under normoxic condition in absence of 4% bovine serum albumin by MABA assay. The format is functional.
The test system of test [20] is Staphylococcus aureus. Put plainly: Antibacterial activity against Staphylococcus aureus ATCC 29213 at 10 ug/ml after 16 hrs. The class given is functional. Particulars: ATCC 29213, 16 h.
Test [21] has as its system Pseudomonas aeruginosa. The test can be described thus: Antibacterial activity against Pseudomonas aeruginosa ATCC 27853 at 10 ug/ml after 16 hrs. The class given is functional. Particulars: ATCC 27853, 16 h.
Test [22] deals with Pseudomonas aeruginosa. The test can be described thus: Antibacterial activity against Pseudomonas aeruginosa ATCC 27853 after 16 hrs. The format is functional. Particulars: ATCC 27853, 16 h.
Test [23] deals with Escherichia coli. Put plainly: Antibacterial activity against Escherichia coli ATCC 25922 after 16 hrs. The class given is functional. The conditions noted are these: ATCC 25922, 16 h.

Each structure is given as a SMILES string. Converted amounts (≈) assume the structure as drawn.

In general, MIC refers to the lowest concentration that inhibits growth of the organism. `C=C1NC(CC(C)C)C(=O)N[C@H](C(C)C)C(=O)N2NCCCC2C(=O)CC(CC(C)C)C(=O)N2NCCCC2C(=O)OC(C)[C@H]1NC(=O)[C@@H](NC=O)[C@@H](C)CC` (some centres not stated) registered a minimal inhibitory concentration (MIC) in [1] of 3.12 mg/L (≈ 3.95 µM).

As a reminder, the inhibition is how much of the control response was suppressed. In general, MIC90 refers to an inhibitory concentration at the 90% level, which refers to growth in some studies and to a panel of isolates in others. What is called IC50 is the concentration that gives 50% inhibition. With `CC(C)C[C@@H]1NC(=O)[C@H]2CCCNN2C(=O)[C@H](C)N(C)C(=O)[C@H]2CCCNN2C(=O)[C@@H]2CCCNN2C(=O)[C@@H](C(C)C)NC1=O`, the inhibition at 10 µg/mL in the test on Escherichia coli [2] was 17%; in the test with Candida albicans [6], 17%; in the test on Acinetobacter baumannii [12], 37%; in the test with Staphylococcus aureus [20], 86%; with Pseudomonas aeruginosa [21], 7%. The MIC90 in [3] was 16.9 mg/L (≈ 26.7 µM); in [4], 24.1 mg/L; against Streptococcus pneumoniae it was 8.4 mg/L (≈ 13.3 µM); in [5] it was over 10 mg/L; in test [7], 29.2 mg/L; in test [8] it was 9.6 mg/L (≈ 15.1 µM). Besides, the MIC90 is 8 mg/L (≈ 12.6 µM) in the test with Enterococcus faecalis; over 10 mg/L against Staphylococcus aureus [9]; 11.3 mg/L (≈ 17.8 µM) in test [10] (Mycobacterium tuberculosis, H37Rv, 168 h); 19.2 mg/L (≈ 30.3 µM) in test [11]; over 10 mg/L against Acinetobacter baumannii [13]; 22.9 mg/L (≈ 36.1 µM) in test [14]. For the same molecule, the MIC90 in test [15] was 9.7 mg/L (≈ 15.3 µM); in the test with Candida albicans [17], over 10 mg/L; in test [18], 9.3 mg/L (≈ 14.7 µM); with Pseudomonas aeruginosa [22], over 10 mg/L; in the test with Escherichia coli [23] it was over 10 mg/L. Further, the IC50 in the test with Vero stood at 24.2 mg/L (≈ 38.2 µM). This molecule also gave an MBC90 in test [10] of over 50 mg/L. Besides, the Ratio in test [16] and in test [19] was 2 throughout.

For the origin of these results see ChEMBL document CHEMBL3085716, “Hytramycins V and I, anti-Mycobacterium tuberculosis hexapeptides from a Streptomyces hygroscopicus strain” (J Nat Prod, 2013).
